# Entries after “also recorded” stand apart in the source; their conditions may differ. Like-named read-outs stand apart in the source and are kept apart here.
# Key:
# murine fibroblasts L929 = assay: Cytotoxicity, MTT method, L929; format: cell-based; conditions: Mus musculus, L929, 120 h, read-out: IC50 L929
# Experimental: (§1) The cytotoxicity against the murine fibroblasts L929, human cervix carcinoma KB-3-1, human lung carcinoma A549, human prostate cancer PC-3, epidermoid carcinoma A431, ovarian carcinoma SKOV-3, and breast cancer MCF-7 cell lines was determined by using the MTT (2-(4,5-dimethylthiazol-2-yl)-2,5-diphenyltetrazolium bromide) method in 96-well microplates as previously described. Briefly, the cell lines were cultured in DMEM (Gibco), 60 µL aliquots of serial dilutions from an initial stock of 1 mg/mL in MeOH of the test compounds were added to 120 µL aliquots of a cell suspension (5 × 10^4 cells/mL) in 96-well microplates. After 5 days incubation, an MTT assay was performed, and the absorbance measured at 590 nm using an ELISA plate reader (Victor). The concentration at which the growth of cells was inhibited to 50% of the control (IC50) was obtained from the dose–response curves. Epothilone B was used as the positive control.
# [1] = test system: human cervix carcinoma KB-3-1; assay: Cytotoxicity, MTT method, KB-3-1; format: cell-based; conditions: KB 3-1, 120 h, 5 days incubation, na: not active, read-out: IC50 KB3.1
# Experimental: as §1
# Caenorhabditis elegans = assay: Nematicidal activity, microtiter plate assay; format: cell-based; conditions: for LD50 / LD90 / nematicidal activity (in words): C. elegans; for LD50 / LD90: tested at 100, 50, 25 and 12.5 μg/mL, no: not obtained; for mortality: at concentrations of 50 and 100 μg/mL
# Experimental: Nematicidal activity was performed using Caenorhabditis elegans in a microtiter plate assay as described by Rupcic et al. (2018). The assay was performed in four concentrations (100, 50, 25 and 12.5 μg/mL). Ivermectin was used as a positive control at the same concentration ranges as the tested compounds and MeOH was used as a negative control. Percentages of mortality were calculated, then the results were expressed as a LD90 and LD50.
# [2] = test system: L929, KB3-1, A549, PC-3, A431, SKOV-3 and MCF-7 cell lines; assay: Cytotoxicity, MTT method, statements over the cell line panel; format: cell-based
# Experimental: as §1
# [3] = parameters: method as in PMID 28991218; conditions: cited from earlier work
# [4] = parameters: method as in PMID 28991218; conditions: cited from earlier work; remark: listed apart in the source
# [5] = test system: human lung carcinoma A549; assay: Cytotoxicity, MTT method, A549; format: cell-based; conditions: A549, 120 h, 5 days incubation, na: not active
# Experimental: as §1
# [6] = test system: human prostate cancer PC-3; assay: Cytotoxicity, MTT method, PC-3; format: cell-based; conditions: 120 h, read-out: IC50 PC-3
# Experimental: as §1
# [7] = test system: epidermoid carcinoma A431; assay: Cytotoxicity, MTT method, A431; format: cell-based; conditions: Homo sapiens, A-431, 120 h, 5 days incubation, na: not active
# Experimental: as §1
# ovarian carcinoma SKOV-3 = assay: Cytotoxicity, MTT method, SKOV-3; format: cell-based; conditions: Homo sapiens, SK-OV-3, 120 h, 5 days incubation, na: not active
# Experimental: as §1
# breast cancer MCF-7 = assay: Cytotoxicity, MTT method, MCF-7; format: cell-based; conditions: Homo sapiens, MCF7, 120 h, read-out: IC50 MCF-7
# Experimental: as §1
# A549 = test system: A549; parameters: method as in PMID 36006179; conditions: human cancer cell line; cited from earlier work
# Hs683 = test system: Hs683; parameters: method as in PMID 36006179; conditions: human cancer cell line; cited from earlier work
# SKMEL-28 = test system: SKMEL-28; parameters: method as in PMID 36006179; conditions: human cancer cell line; cited from earlier work
# [8] = MTT, 5 days incubation, na: not active
# [9] = read-out: IC50 values, range against the L929 and KB3-1 cell lines
# [10] = all tested cell lines, read-out: IC50 values, range against all the tested cell lines
compound,measurement,setting,value
"C/C=C/C(=O)O[C@H]1C2=C(O[C@@H](/C=C/C)[C@@H]1O)[C@@](C)(OC)OC2=O [Compound 7, massarilactone D 4-O-crotonyl-7-O-methyl]",IC50,murine fibroblasts L929; [8],61.7 µM
same,IC50,[1],55.6 µM
same,LD50,Caenorhabditis elegans,not obtained and no
same,LD90,Caenorhabditis elegans,no
same,mortality,Caenorhabditis elegans,some mortality
same,IC50,[2]; [9],18.5 to 61.7 µM
"C/C=C/[C@@H]1OC2=C(C(=O)O[C@]2(C)OC(=O)c2ccc(Br)cc2)[C@H](OC(=O)c2ccc(Br)cc2)[C@H]1OC(=O)c1ccc(Br)cc1 [Compound 5, massarilactone D 3,4,7-tri-O-bromobenzoyl]",LD50,Caenorhabditis elegans,100 µg/mL
same,LD90,Caenorhabditis elegans,not obtained and no
"C/C=C/C(=O)O[C@H]1C2=C(O[C@@H](/C=C/C)[C@@H]1O)[C@@](C)(OC(=O)/C=C/C)OC2=O [Compound 8, massarilactone D 4,7-di-O-crotonyl]",IC50,murine fibroblasts L929; [8],50.3 µM
same,IC50,[1],18.5 µM
same,LD50,Caenorhabditis elegans,not obtained and no
same,LD90,Caenorhabditis elegans,no
same,mortality,Caenorhabditis elegans,some mortality
same,IC50,[2]; [9],18.5 to 61.7 µM
"C/C=C/[C@@H]1OC2=C(C(=O)O[C@]2(C)O)[C@H](O)[C@H]1OC(=O)/C(C)=C/C [Compound 6, massarilactone D 7-O-trans-2-methyl-2-butenoyl]",LD50,Caenorhabditis elegans,not obtained and no
same,LD90,Caenorhabditis elegans,no
same,mortality,Caenorhabditis elegans,some mortality
"C/C=C/[C@@H]1OC2=C(C(=O)O[C@]2(C)O)[C@H](O)[C@H]1O [Compound 1, Massarilactone D]",LD50,Caenorhabditis elegans,not obtained and no
same,LD90,Caenorhabditis elegans,no
same,mortality,Caenorhabditis elegans,some mortality
same,cytotoxic activity (in words),[2]; all tested cell lines,not active
same,antimicrobial activity (in words),[3],did not exhibit significant antimicrobial
same,cytotoxic activity (in words),[4],did not exhibit significant antimicrobial or cytotoxic activities
"C=C1OC(=O)C2=C1O[C@@H](/C=C/C)[C@H](OC(=O)/C=C/c1ccccc1)[C@H]2OC(=O)/C=C/c1ccccc1 [Compound 3, massarilactone H 3,4-di-O-trans-cinnamoyl]",IC50,murine fibroblasts L929; [8],5.58 µM
same,IC50,[1],7.85 µM
same,IC50,[5],19.6 µM
same,IC50,[6]; [8],7.64 µM
same,IC50,[7],4.34 µM
same,IC50,ovarian carcinoma SKOV-3,13.2 µM
same,IC50,breast cancer MCF-7; [8],3.51 µM
same,nematicidal activity (in words),Caenorhabditis elegans,did not exhibit nematicidal activity
same,cytotoxic activity (in words),[2]; all tested cell lines,significant cytotoxicity
same,IC50,[2]; [10],3.51 to 32.7 µM
C=C1OC(=O)C2=C1OC(/C=C/C)C(O)C2O (stereo not drawn) [massarilactone H],IC50,A549,32.9 µM
same,IC50,Hs683,31.5 µM
same,IC50,SKMEL-28,35.2 µM
"C=C(C)C(=O)O[C@H]1[C@H](/C=C/C)OC2=C(C(=O)O[C@]2(C)OC(=O)C2(C)CCC(C)=C(Cl)O2)[C@@H]1OC(=O)C(=C)C (stereo partly drawn) [Compound 2, massarilactone D 3,4-di-O-methacryloyl-7-O-(6-chloro-3,4-dihydro-2,5-dimethyl-2H-pyran-2-carbonyl)]",IC50,murine fibroblasts L929; [8],5.09 µM
same,IC50,[1],13.1 µM
same,IC50,[5],32.7 µM
same,IC50,[6]; [8],11.8 µM
same,IC50,[7],4 µM
same,IC50,ovarian carcinoma SKOV-3,11.8 µM
same,IC50,breast cancer MCF-7; [8],7.09 µM
same,cytotoxic activity (in words),[2]; all tested cell lines,significant cytotoxicity
same,IC50,[2]; [10],3.51 to 32.7 µM
"C/C(=C\c1csc(C)n1)[C@@H]1C[C@@H]2O[C@]2(C)CCC[C@H](C)[C@H](O)[C@@H](C)C(=O)C(C)(C)[C@@H](O)CC(=O)O1 [epothilone B, Epothilone B, reference compound]",IC50,murine fibroblasts L929,0.0022 µM
same,IC50,[6],9.1e-05 µM
same,IC50,breast cancer MCF-7,7.5e-05 µM
"C/C=C/[C@@H]1OC2=C(C(=O)O[C@]2(C)OC(=O)/C=C/c2ccccc2)[C@H](OC(=O)/C=C/c2ccccc2)[C@H]1OC(=O)/C=C/c1ccccc1 [Compound 4, massarilactone D 3,4,7-tri-O-trans-cinnamoyl]",nematicidal activity (in words),Caenorhabditis elegans,potent activity against nematodes; also recorded: good nematicidal activity
same,LD50,Caenorhabditis elegans,12.5 µg/mL
same,LD90,Caenorhabditis elegans,100 µg/mL

# — paper PMC11931645, “Semisynthetic derivatives of massarilactone D with cytotoxic and nematicidal activities” (Beilstein Journal of Organic Chemistry, 2025)
